The values that follow come from patent US8598368B2, “Stable neutral nitric oxide source” (priority 2007, dated 2013).

Data set [1] can be described thus: Stability of the Diels-Alder adduct and its hydrogenated derivative (observation). It is filed as physicochemical. Particulars: white solid precipitated at 0° C., then warmed. As for the experimental part: At 0° C., a white solid, presumed to be 2, precipitated from solution. […] To confirm the identity of 2, hydrogenation produced stable compound 3 as described below.

Data set [2] in a line: Treatment of patient with chronic hypertension. It is filed as in vivo. Particulars: intravenous, blood concentration of 10 nanomolar. From the text:
A person being treated with sodium iodide for hyperthyroidism has chronic hypertension (BP of 165/90). The patient is given 4 intravenously to maintain a blood concentration of 10 nanomolar. Blood pressure reduces to 140/85.
Treatment of patient with chronic hypertension with 6 The patient who has chronic hypertension (BP of 165/90) is given 6 intravenously to maintain a blood concentration of 10 nanomolar. Blood pressure reduces to 140/85.

Consider `N#CC1(N2OC3CCC2C3)CCCCC1` (stereo not shown) [Compound 3, N-(−1-cyanocyclohexyl)bicyclo[2.2.1]3,4,5,6-tetrahydro-1,2-oxazine], for which the “Stability (retro Diels Alder reaction)” value in data set [1] is “stable”.

For `N#CC1(N2OC3CC2C(S)C3O)CCCCC1` (stereo not shown) [Compound 6, N-(1-Cyanocyclohexyl)bicyclo[2.2.1]4-thio-5-hydroxy-3,6-dihydro-1,2-oxazine], the Blood pressure in data set [2] (patient with chronic hypertension (BP of 165/90)) is reported as 140/85.

For the molecule `N#CC1(N2OC3CC2C(Br)C3Br)CCCCC1` (stereo not shown) [Compound 4, N-(1-cyanocyclohexyl)bicyclo[2.2.1]4,5-dibromo-3,6-dihydro-1,2-oxazine], the Blood pressure in data set [2] (person treated with sodium iodide, chronic hypertension (BP of 165/90)) is on record as 140/85.

In the case of `N#CC1(N2OC3C=CC2C3)CCCCC1` (stereo not shown) [Compound 2], the “Stability (retro Diels Alder reaction)” value in data set [1] is “On warming, the solid turned blue, suggesting retro Diels Alder reaction”.
